# Results: patent US12728098B2, “Methods of producing extracellular vesicles” (LONZA SALES AG, priority 2019, dated 2026)
# Assays:
# splenocytes = assay: Tumor antigen-specific IFN-γ production in splenocytes (Trp2, GP100 & Tyr peptides); type: in vivo, mice; settings: two IT doses, day 4, FIG. 13G
# Procedure: FIG. 13B provides representative H&E stained images from PBS, CDN2 (20 μg), and exoCDN2 (0.12 μg) treated samples. FIG. 13C is a table showing the number of complete responders by histopathological analysis. […] FIG. 13F is a graphical representation of tumor growth after CD8 T cell depletion in B16F10 tumor bearing mice following administration of the IgG (10 mg/kg) or anti-CD8 antibody (10 mg/kg) intraperitoneally, one day before IT injection (n=5 per group). Blue arrows indicate intraperitoneal injection days (FIG. 13F). […] Data are presented as means±s.e.m.
# We next evaluated the capacity of exoSTING to induce systemic, antigen specific T cell responses in the B16F10 tumor model. Several tumor-associated CD8-dependent antigens have been identified as dominant antigens from B16F10 tumor cells (Kreiter et al., Nature 520, 692-696 (2015), which is incorporated by reference herein in its entirety).
# human PBMC = assay: IFN-β production in human PBMC supernatant; type: cell-based; settings: FIG. 12A
# Procedure: We compared the activity of co-administered exosomes and free CDN with exoSTING in in vitro PBMC assays.
# These populations of exosomes were next examined for their capacity activate STING pathway as measured by IFN-β production. […] These CDN-loaded exosomes were assayed in vitro for their potential to induce IFN-β production in PBMC cultures. EC50 values and maximal IFN-β cytokine production (Cmax) were assessed from multiple donors.
# [1] = system: T cells stimulated by anti-CD3 and anti-CD28; assay: IFN-β production in T cells stimulated by anti-CD3 and anti-CD28; type: cell-based, human; settings: FIG. 17F
# From the text: (§1) FIGS. 17F and 17G show representative dose-response curves of IFN-β production (FIG. 17F) and cytotoxicity (FIG. 17G) in stimulated T cells after treating with free CDN2 and exoCDN2. T cells were purified from human PBMCs and stimulated with anti-CD3/anti-CD28.
# (§2) Next, we characterized the effect of exoSTING for free CDN on naïve or TCR stimulated T cells. We purified T cells and treated them with a dose titration of exoSTING or free CDN and compared IFNβ production in the presence or absence of TCR stimulation. […] We next characterized induction of T cell death using Cytotox dye staining following exoSTING or free CDN2 treatment in T cells stimulated with anti-CD3 and anti-CD28. Following free CDN2 treatment, we observed a dose dependent increase in T cell death (up to ~20% of T cells) as measured by Cytotox dye staining (FIG. 17G). […] Importantly, exoSTING preserves the viability of TCR stimulated T cells.
# naïve T cells = assay: IFN-β production in naïve T cells; type: cell-based, human
# From the text: as §2
# [2] = system: T cells stimulated with anti-CD3 and anti-CD28; type: cell-based, human; settings: FIG. 17G
# From the text: as §1, §2
# B16F10 tumor = assay: B16F10 subcutaneous tumor growth after intratumoral injection; type: in vivo, C57BL/6 mice; settings: 0.1 μg CDN2, IT, FIG. 12F
# Procedure: C57BL/6 mice were implanted subcutaneously with 1×10^6 B16F10 cell on right flank of mice. Additional implantation of tumors is specified in each legend. When tumor volumes reached 50-100 mm^3, testing agents were injected intratumorally 3 times with 3 days interval. Red arrows in the graph indicate IT injection days. Tumor growth were measured over time. n=5 per group. […] RLU: Relative Luminescent Unit. ****, P<0.0001 by two-way ANOVA with Tukey's multiple comparison test for tumor growth studies. Data are presented as means±s.e.m. (FIGS. 12D-12F).
# Data are presented as means±s.e.m. RLU: Relative Luminescent Unit. […]
# We have previously identified and characterized exosome-specific surface glycoproteins using unbiased proteomic analysis and identified the immunoglobulin super family member PTGFRN as a protein that is enriched on human exosomes and contains nine predicted N-linked glycosylation sites (see Dooley et al., Cancer Res. 79(13 Suppl), Abstract nr 2150 (2019), which is incorporated by reference herein in its entirety). […] These populations of exosomes were next examined for their capacity activate STING pathway as measured by IFN-β production. […] EC50 values and maximal IFN-β cytokine production (Cmax) were assessed from multiple donors. […]
# [3] = Pharmacokinetics of CDN in injected B16F10 tumors, LC-MS/MS; type: in vivo, C57BL/6 mice; settings: injected tumor
# Procedure: (§3) C57BL/6 mice were implanted subcutaneously with 1×10^6 B16F10 cells. FIGS. 14A and […] are graphical representations showing the concentration of CDN2 in tumors (FIG. 14A) and plasma (FIG. 14B) as measured by LC-MS/MS at 5 minutes, 30 minutes, 2 hours, 6 hours, 24 hours, and 48 hours after single IT injection (n=3 per group at each time point) in C57BL/6 mice implanted subcutaneously with 1×10^6 B16F10 cells. FIGS. 14C-14E are graphs showing the relative expression of IFN-β (FIG. 14C), CXCL9 (FIG. 14D), and CXCL10 (FIG. 14E) genes as measured by RT-qPCR, normalized against the housekeeping gene RPS13. FIGS. 14F-14H are graphs showing serum levels of IFN-β (FIG. 14F), TNF-α (FIG. 14G), and IL-6 (FIG. 14H) (n=5 per group). Data are presented as means±s.e.m. *, P<0.05; **, P<0.01; ***, P<0.001; ****, P<0.0001 by one-way ANOVA with Tukey's multiple comparison test.
# (§4) A major limitation of IT administration of free CDN is its rapid dissemination into the systemic circulation (see Sivick et al., Cell Rep. 25, 3074-3085.e5 (2018)). […] This reduces the effectiveness of the CDN to elicit a productive immune response in the tumor resulting in higher doses of free CDN required for efficacy. In B16F10 tumors after injection of exoSTING or free CDN, we measured the amount of CDN in tumors and blood over time.
# [4] = CDN in plasma / systemic circulation after IT injection, LC-MS/MS; type: in vivo, C57BL/6 mice
# Procedure: as §3, §4
# Further, free CDN2 is cleared rapidly in the systemic circulation (106 mL/hr).
# B16F10 tumors = assay: Histology of injected B16F10 tumors (H&E, IFN-β mRNA, CD8, F4/80); type: in vivo; settings: free CDN2 20 μg, exoSTING 0.1 μg, 4 and 24 hours after two injections, FIG. 15A
# Procedure: In order to distinguish the immune stimulatory versus immune ablative mechanisms of action between free CDN2 and exoSTING, we compared the effects of efficacious doses of free CDN2 (20 μg) or exoSTING (0.1 μg) after IT dosing in a therapeutic setting with the B16F10 model.
# [5] = system: CD8+ T cells and XCR1+ DCs in B16F10 tumors; assay: Flow cytometry of B16F10 tumors after two IT injections; type: in vivo, mice; settings: 20 μg, FIG. 15D
# Procedure: FIG. 15 is a graphical representation of IFN-β positive area. FIG. 15C is a graphical representation of CD8 positive cells. FIGS. 15D-15E are graphical representations of the percentage of CD8 T cells in live CD45^+ cells in tumors (FIG. 15D) and CD86 expression on dendritic cells (FIG. 15E) as measured by flow cytometry after 2 doses of PBS, CDN2 (20 μg), and exoCDN2 (0.2 μg) into B16F10 tumors (n=5 per group). *, P<0.05; **, P<0.01; ****, P<0.0001 by one-way ANOVA with Tukey's multiple comparison test; n.s., non-significant.
# We also assessed CD8^+ T cell and XCR1^+ DC activation after two IT injections of exoSTING and free CDN2 by flow cytometry. […] This increase in CD8^+ T cell is consistent with the increased CXCL9 and CXCL10 production following exoSTING treatment (FIGS. 14D and 14E). […] The enhanced activation of this DC subset seen with exoSTING but to a lesser degree with free CDN, is consistent with the observed superiority of anti-tumor activity of exoSTING in the B16F10 model (FIGS. 12 and 13).
# [6] = system: global gene expression in B16F10 tumors; assay: RNA sequencing of B16F10 tumors after 1 or 2 IT injections; type: in vivo, mice; settings: after 2 doses, exoSTING 0.1 μg, free CDN2 20 μg, FIG. 16E
# Procedure: FIGS. 16A-16C are box plots showing the relative expression of IFN-β (FIG. 16A), CD274 (FIG. 16B), and CXCL9 (FIG. 16C) as measured by NanoString in RNA samples collected four hours after IT injection of PBS, CDN2 (0.1, 20, or 100 μg), and exoCDN2 (0.001, 0.01, or 0.1 μg) into B16F10 tumors. Data are presented as means±s.e.m. *, P<0.05; **, P<0.01; ***, P<0.001; ****, P<0.0001 by one-way ANOVA with Tukey's multiple comparison test. […] All genes were compared to PBS treatment. […] Adjusted P values are indicated.
# To further characterize the immune pathway activation, we evaluated the global gene expression changes after 1 or 2 IT injections of efficacious doses of exoSTING (0.1 μg) and free CDN2 (20 μg) by RNA sequencing. All samples were compared to PBS treatment. […] Tcf7 (which encodes TCF1) is a key transcription factor expressed in the stem-like progenitor CD8^+ T cells (Siddiqui et al., Immunity. 50, 195-211.e10 (2019)). This cell subset is required for response to checkpoint inhibitor therapies. (Siddiqui, 2019). […] This loss may underlie the lack of immunological memory response to free CDN.
# In contrast, high doses of free CDN decrease the expression of these key genes as well as reducing the expression of APC markers.
Compound,increase in the number of IFN-γ positive spots compared to PBS control (splenocytes; 0.2 μg),IFN-γ positive spots compared to PBS control (splenocytes; 20 μg),EC50 (human PBMC),EC50 [1],IFN-β production (naïve T cells),"T cell death by Cytotox dye staining (maximum, dose dependent) [2]",tumor growth (B16F10 tumor),AUC ([3]; 0.3 μg single IT),CL ([3]; 0.3 μg single IT),Cmax ([3]; 0.3 μg single IT),T1/2 ([3]; 0.3 μg single IT),AUC ([3]; 30 μg single IT),CL ([3]; 30 μg single IT),Cmax ([3]; 30 μg single IT),T1/2 ([3]; 30 μg single IT),detection in the plasma at the 30-minute timepoint ([4]; 30 μg IT),clearance in the systemic circulation ([4]; free CDN2 after IT injection (30 μg)),tissue damage by H&E staining (B16F10 tumors),number of viable CD8+ T cells compared PBS control [5],Tcf7 levels [6]
"Nc1ncnc2c1ncn2[C@@H]1O[C@@H]2COP(O)(=S)O[C@@H]3C(O)[C@@H](COP(O)(=S)O[C@H]2[C@H]1O)O[C@H]3n1cnc2c(N)ncnc21 (some centres unmarked) [CDN1, ML RR-S2]",failed to induce IFN-γ positive spots,failed to induce IFN-γ positive spots,,,,,,,,,,,,,,,,,,
"Nc1ncnc2c1ncn2[C@@H]1O[C@@H]2COP(O)(=S)O[C@H]3[C@@H](F)[C@H](n4cnc5c(=O)[nH]cnc54)O[C@@H]3COP(O)(=S)O[C@H]2[C@H]1F (some centres unmarked) [CDN2, cAIM(PS)2 Difluor (Rp/Sp)]",,,~9.7 µM,~8.2 µM,no IFN-β production was observed,~ 20 % of T cells,Neither free CDN2 (0.1 μg) or co-administered PTGFRN^+/+ exosomes mixed with free CDN2 (0.1 μg) resulted in measurable tumor growth inhibition,799 ng·h/mL,0.375 mL/h,"1,240 ng/mL",0.620 h,"97,300 ng · hr/mL",0.308 mL/h,"13,800 ng/mL",2.05 h,detectable in the plasma,106 mL/h,significant evidence of tissue damage in the skin and tumor cell death,significantly decreased,decrease in Tcf7 levels
